Measured values published in paper PMC8344021, “Discovery of Small Molecule Bak Activator for Lung Cancer Therapy” (Theranostics, 2021).

Tested on: other Bcl2 family members (Bax, Bcl2, Bcl-XL, Bcl-w and Mcl-1)
Assay: Competitive fluorescence polarization (FP) assay, other Bcl2 family members
Assay type: binding, human
Text: To confirm the binding of BKA-073 with Bak, we first conducted a competitive fluorescence polarization (FP) assay using purified human Bak protein, fluorescent Bak BH3 domain peptide, and BKA-073 as described, [37]-[40]. […] There are multiple amino acid differences in the BH3 domains between Bak and other Bcl2 family members, which helps to explain why BKA-073 only binds to Bak but not to other Bcl2 family members (i.e. Bax, Bcl2, Bcl-XL, Bcl-w and Mcl-1). In addition to the FP assay, isothermal titration calorimetry (ITC) was also employed to measure Bak/BKA-073 binding. […] In addition to human Bak/BKA-073 binding, we measured mouse Bak/BKA-073 binding using ITC.
(1 x 10^5 cells) was transferred to a 5 ml culture tube, followed by the addition of 5 μl of FITC Annexin V and 5 μl propidium iodide (PI). […] Samples were analyzed by flow cytometry (BD FACSCantoTMII, BD Biosciences, San Jose, CA). ∆% cell death was calculated with the formula: (% cell death treated - % cell death non-treated) as described […]
Fluorescence polarization (FP) assay
Fluorescence polarization assay was carried out as described previously. […] The FP values (in millipolarization units) were measured using a fluorescence microplate reader at 485/530 nm (Gemini XPS, Molecular Devices). Data analysis and inhibit ory constant (Ki) value was determined by GraphPad prism software as described. […]

`COc1ccc2nc3ccccc3c(NCCNCC(C)O)c2c1` (stereo not shown) [BKA-073] was tested, and the “binding affinity with other Bcl2 family members” value was “very low binding affinity”.
